This is an account of results in patent publication US7799824B2, “Quaternary salt CCR2 antagonists” (OraPharma, Inc., priority 2004, dated 2010).

The term inhibition denotes the change of the read-out against control, counted positive when it falls. As a reminder, the pIC50 is −log10 of the IC50, conventionally taken in molar units.

pIC50: −log10 of the molar value.

One experiment has as its target T1, CCR2 (Homo sapiens, UniProt P41597).
T1 sequence (P41597 1-360 isoform P41597-2): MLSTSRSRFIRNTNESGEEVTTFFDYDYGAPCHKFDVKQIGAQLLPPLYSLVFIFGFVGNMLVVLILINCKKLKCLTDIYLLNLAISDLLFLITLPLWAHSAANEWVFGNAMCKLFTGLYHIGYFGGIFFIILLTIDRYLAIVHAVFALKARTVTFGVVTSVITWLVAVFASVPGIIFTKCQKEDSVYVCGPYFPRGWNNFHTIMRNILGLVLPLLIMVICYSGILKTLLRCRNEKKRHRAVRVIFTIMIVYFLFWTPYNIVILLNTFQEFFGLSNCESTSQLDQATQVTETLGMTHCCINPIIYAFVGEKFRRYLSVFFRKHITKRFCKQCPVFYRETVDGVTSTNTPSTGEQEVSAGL
Nature of the experiment: MCP-1 Receptor Binding Assay in THP-1 Cells. The settings on record: MCP-1 binding to CCR2; test concentration of 25 μM, unless indicated otherwise; read-out: % Inhibition Ligand Binding. A digest of the protocol: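 THP-1 cells; bound radioactivity collected on filter plates and counted by scintillation. Buffer-only blanks subtracted, drug-treated values compared with vehicle; nonspecific binding defined with 1 μM unlabeled MCP-1.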
Take `Cc1cc(Cl)cc2c1OCC(C(=O)NCc1ccc(C[N+](C)(C)C3CCOCC3)cc1)=C2` [Cpd 121, (4-{[(6-chloro-8-methyl-2H-chromene-3-carbonyl)-amino]-methyl}-benzyl)-dimethyl-(tetrahydro-pyran-4-yl)-ammonium iodide]: the inhibition at 25 µM stood at 37%.

As for `C[N+](C)(Cc1ccc(NC(=O)C2=Cc3cc(F)ccc3OC2)cc1)C1CCCCC1` [Cpd 123, cyclohexyl-{4-[(6-fluoro-2H-chromene-3-carbonyl)-amino]-benzyl}-dimethyl-ammonium iodide], the inhibition at 25 µM is 100%.

Regarding `C[N+](C)(Cc1ccc(NC(=O)C2=Cc3c(F)cccc3OC2)cc1)C1CCCCC1` [Cpd 124, cyclohexyl-{4-[(5-fluoro-2H-chromene-3-carbonyl)-amino]-benzyl}-dimethyl-ammonium iodide], the inhibition at 25 µM is 100%.

For `C[N+](C)(Cc1ccc(NC(=O)C2=Cc3cc(C(F)(F)F)ccc3OC2)cc1)C1CCCCC1` [Cpd 125, cyclohexyl-dimethyl-{4-[(6-trifluoromethyl-2H-chromene-3-carbonyl)-amino]-benzyl}-ammonium iodide], the inhibition at 25 µM amounted to 100%.

`C[N+](C)(Cc1ccc(CNC(=O)C2=Cc3c(ccc4ccccc34)OC2)cc1)C1CCOCC1` [Cpd 141, (4-{[(3H-benzo[f]chromene-2-carbonyl)-amino]-methyl}-benzyl)-dimethyl-(tetrahydro-pyran-4-yl)-ammonium iodide]: the inhibition at 25 µM is -21%.

As to `C[N+](C)(Cc1ccc(CNC(=O)C2=Cc3cc(Br)ccc3CCC2)cc1)C1CCOCC1` [Cpd 142, (4-{[(3-bromo-8,9-dihydro-7H-benzocycloheptene-6-carbonyl)-amino]-methyl}-benzyl)-dimethyl-(tetrahydro-pyran-4-yl)-ammonium iodide], the inhibition at 25 µM was -18%.

In the case of `C[N+]1(Cc2ccc(NC(=O)C3=Cc4ccccc4CCC3)cc2)CCCC1` [Cpd 145, 1-{4-[(8,9-dihydro-7H-benzocycloheptene-6-carbonyl)-amino]-benzyl}-1-methyl-pyrrolidinium iodide], the inhibition at 25 µM amounted to 36%.

For the compound `C[N+](C)(Cc1ccc(CNC(=O)C2=Cc3ccccc3CCC2)cc1)C1CCOCC1` [Cpd 148, (4-{[(8,9-dihydro-7H-benzocycloheptene-6-carbonyl)-amino]-methyl}-benzyl)-dimethyl-(tetrahydro-pyran-4-yl)-ammonium iodide], the inhibition at 25 µM amounted to 7%.

Still in this experiment, the particulars now being: THP-1 cells, 0.5 nM 125I labeled MCP-1, 2 hours at 30° C.; read-out: Mean Ligand Binding IC50 (inhibition of MCP-1 binding to CCR2).
Take `C[N+](C)(Cc1ccc(NC(=O)C2=Cc3cc(Cl)cc(Cl)c3OC2)cc1)C1CCSC1` (stereo not shown) [Cpd 122, {4-[(6,8-dichloro-2H-chromene-3-carbonyl)-amino]-benzyl}-dimethyl-(tetrahydro-thiophen-3-yl)-ammonium iodide]: the pIC50 is 6.24.

`C[N+](C)(Cc1ccc(NC(=O)C2=Cc3cccc(F)c3OC2)cc1)C1CCCCC1` [Cpd 126, cyclohexyl-{4-[(8-fluoro-2H-chromene-3-carbonyl)-amino]-benzyl}-dimethyl-ammonium iodide]: the pIC50 is 6.04.

Regarding `Cc1ccc2c(c1)OCC(C(=O)Nc1ccc(C[N+](C)(C)C3CCCCC3)cc1)=C2` [Cpd 127, cyclohexyl-dimethyl-{4-[(7-methyl-2H-chromene-3-carbonyl)-amino]-benzyl}-ammonium iodide], the negative-log IC50 (pIC50) is 7.10.

In the case of `COc1ccc2c(c1)OCC(C(=O)Nc1ccc(C[N+](C)(C)C3CCCCC3)cc1)=C2` [Cpd 128, cyclohexyl-{4-[(7-methoxy-2H-chromene-3-carbonyl)-amino]-benzyl}-dimethyl-ammonium iodide], the pIC50 is 6.22.

In the case of `CC(C)(C)c1ccc2c(c1)C=C(C(=O)Nc1ccc(C[N+](C)(C)C3CCCCC3)cc1)CO2` [Cpd 129, {4-[(6-tert-butyl-2H-chromene-3-carbonyl)-amino]-benzyl}-cyclohexyl-dimethyl-ammonium iodide], the negative-log IC50 (pIC50) was 6.82.

Turning to `C[N+](C)(Cc1ccc(NC(=O)C2=Cc3cc(C(F)(F)F)ccc3OC2)cc1)C1CCSC1` (stereo not shown) [Cpd 130, dimethyl-(tetrahydro-thiophen-3-yl)-{4-[(6-trifluoromethyl-2H-chromene-3-carbonyl)-amino]-benzyl}-ammonium iodide], the pIC50 is 6.52.

As for `C[N+](C)(Cc1ccc(NC(=O)C2=Cc3cccc(C(F)(F)F)c3OC2)cc1)C1CCCCC1` [Cpd 134, cyclohexyl-dimethyl-{4-[(8-trifluoromethyl-2H-chromene-3-carbonyl)-amino]-benzyl}-ammonium iodide], the negative-log IC50 (pIC50) is 6.33.

For the compound `C[N+](C)(Cc1ccc(NC(=O)C2=Cc3c(ccc4ccccc34)OC2)cc1)C1CCOCC1` [Cpd 135, {4-[(3H-benzo[f]chromene-2-carbonyl)-amino]-benzyl}-dimethyl-(tetrahydro-pyran-4-yl)-ammonium iodide], the pIC50 is 6.04.

Regarding `C[N+]1(Cc2ccc(NC(=O)C3=Cc4c(ccc5ccccc45)OC3)cc2)CCCC1` [Cpd 136, 1-{4-[(3H-benzo[f]chromene-2-carbonyl)-amino]-benzyl}-1-methyl-pyrrolidinium iodide], the negative-log IC50 (pIC50) is 5.34.

Take `C[N+](C)(Cc1ccc(NC(=O)C2=Cc3c(ccc4ccccc34)OC2)cc1)C1CCCCC1` [Cpd 137, {4-[(3H-benzo[f]chromene-2-carbonyl)-amino]-benzyl}-cyclohexyl-dimethyl-ammonium iodide]: the pIC50 was 7.10.

With `C[N+](C)(Cc1ccc(NC(=O)C2=Cc3c(ccc4ccccc34)OC2)cc1)C1CCSCC1` [Cpd 138, {4-[(3H-benzo[f]chromene-2-carbonyl)-amino]-benzyl}-dimethyl-(tetrahydro-thiopyran-4-yl)-ammonium iodide], the negative logarithm of the IC50 (pIC50) was 5.62.

On to `C[N+]1(Cc2ccc(NC(=O)C3=Cc4c(ccc5ccccc45)OC3)cc2)CCOCC1` [Cpd 139, 4-{4-[(3H-benzo[f]chromene-2-carbonyl)-amino]-benzyl}-4-methyl-morpholin-4-ium iodide], for which the pIC50 is 5.01.

Regarding `C[N+](C)(Cc1ccc(NC(=O)C2=Cc3c(ccc4ccccc34)OC2)cc1)CC1CCOCC1` [Cpd 140, {4-[(3H-benzo[f]chromene-2-carbonyl)-amino]-benzyl}-dimethyl-(tetrahydro-pyran-4-ylmethyl)-ammonium iodide], the negative-log IC50 (pIC50) was 6.00.

As for `C[N+](C)(Cc1ccc(NC(=O)C2=Cc3cc(Br)ccc3CCC2)cc1)C1CCOCC1` [Cpd 143, {4-[(3-bromo-8,9-dihydro-7H-benzocycloheptene-6-carbonyl)-amino]-benzyl}-dimethyl-(tetrahydro-pyran-4-yl)-ammonium iodide], the pIC50 is 8.15.

With `C[N+](C)(Cc1ccc(NC(=O)C2=Cc3cc(Br)ccc3CCC2)cc1)C1CCCCC1` [Cpd 144, {4-[(3-bromo-8,9-dihydro-7H-benzocycloheptene-6-carbonyl)-amino]-benzyl}-cyclohexyl-dimethyl-ammonium iodide], the negative logarithm of the IC50 (pIC50) is 6.48.

Take `C[N+](C)(Cc1ccc(NC(=O)C2=Cc3ccccc3CCC2)cc1)C1CCCCC1` [Cpd 146, cyclohexyl-{4-[(8,9-dihydro-7H-benzocycloheptene-6-carbonyl)-amino]-benzyl}-dimethyl-ammonium iodide]: the pIC50 is 6.15.

In the case of `C[N+](C)(Cc1ccc(NC(=O)C2=Cc3ccccc3CCC2)cc1)C1CCOCC1` [Cpd 147, {4-[(8,9-dihydro-7H-benzocycloheptene-6-carbonyl)-amino]-benzyl}-dimethyl-(tetrahydro-pyran-4-yl)-ammonium iodide], the pIC50 was 5.92.
